Our source for the IC50, inhibition and melting point values is publication PMC6337650 (Molecules, 2018).

The test system of one data set is T24 cells. Conditions: Figure 2; read-out: IC50 against T24 cells; cited from earlier work.
Another data set deals with HCT-116 cells. The data set is described as follows: MTT antiproliferative assay, HCT-116. Format: cell-based, human. The following applies: Homo sapiens, HCT-116, 48 h, MTT, mean ± SD, n=3; for inhibition at 100 µM: read-out: % Growth Inhibition at 100 μM HCT-116. As to the method:
(§1) The antiproliferative activity of the target compounds against a normal L02 cell line and the three different human cancer cell lines viz. colorectal (HCT-116), liver (BEL-7402) and liver (HepG2) were evaluated using a standard MTT-based colorimetric assay. All cell lines were obtained from the Key Laboratory of Natural Resources and Functional Molecules of the Changbai Mountain (Yanbian University, Jilin, China) and maintained in Dulbecco’s modified Eagle’s medium (DMEM) and RPMI Media 1640 (RPMI1640), supplemented with 10% fetal bovine serum (FBS) at 37 °C in a humidified atmosphere containing 5% CO2.
(§2) Cells were plated in 96-well plates at appropriate densities to ensure exponential growth throughout the experimental period (9 × 10^3 cells per well) and then allowed to adhere for 24 h. Cells were then treated for 48 h with four serial concentrations (1, 10, 50 and 100 µM) of each compound. 5-fluorouracil (5-FU) was used as a positive control. After 48 h of incubation, 10 µL of MTT solution was added to each well to a final concentration of 2 mg/mL. Plates were then incubated for a further 4 h. After incubation, the MTT solution was removed and 150 µL of DMSO was added to each well for coloration. The plates were shaken vigorously for 10 min at room temperature to ensure complete solubilization. The optical density (OD) was read on a microplate reader (ELx800, BioTek, Highland Park, Winooski, VT, USA) at a wavelength of 492 nm and the data were subsequently analyzed. The percentage of cell growth inhibition was calculated from the following equation: Inhibitory rate (%) = [(1 − (ODtreated-ODblank)/(ODcontrol-ODblank)] × 100.(1)
Background: Tetrazolium assays rely on reduction of a dye to a coloured formazan, in cell work by metabolically active cells.

A further data set concerns BEL-7402 cells. The data set is described as follows: MTT antiproliferative assay, BEL-7402. Format: cell-based, human. The following applies: Homo sapiens, Bel-7402, 48 h, MTT, mean ± SD, n=3; for inhibition at 100 µM: read-out: % Growth Inhibition at 100 μM BEL-7402. The protocol: as §1, §2
The subject of a further data set is HepG2 cells. In words: MTT antiproliferative assay, HepG2. Format: cell-based, human. The following applies: Homo sapiens, HepG2, 48 h, MTT, mean ± SD, n=3; for inhibition at 100 µM: read-out: % Growth Inhibition at 100 μM HepG2. The protocol: as §1, §2
For a further data set, the system named is L02 cells. In words: MTT assay on normal liver cells L02. Format: cell-based. Conditions: Homo sapiens, normal liver cells, 48 h, MTT, Table 2, read-out: IC50 Values (μM) L02. The protocol:
as §1
as §2, with “5-fluorouracil (5-FU) was used as a positive control.” left out

A further data set has as its system HeLa cells. Conditions: read-out: IC50 against HeLa cells; cited from earlier work.
In another data set the test system is HL-60 cells. Also noted: method as in PMID 26653151, PMID 25405286. Conditions: Figure 2; read-out: IC50 against HL-60 cells; cited from earlier work.

For orientation: IC50 means the concentration that inhibits the measured activity by half. Regarding `CCOP(=O)(OCC)C(NC(=O)[C@]12CC[C@@H](C)[C@H](C)[C@H]1C1=CC[C@@H]3[C@@]4(C)C[C@@H](OC(C)=O)[C@H](OC(C)=O)[C@@](C)(COC(C)=O)[C@@H]4CC[C@@]3(C)[C@]1(C)CC2)c1ccccc1Cl` (stereo partly drawn) [Compound D], the 50% inhibitory concentration (IC50) with T24 cells was 6.59 µM.
As usually defined, the inhibition is the share of the control response that was lost under treatment. The term melting point denotes the temperature of the solid-liquid transition. Consider `C[C@@]12CC[C@@H]3[C@@](CC[C@H]4[C@@]3(C)CCC[C@@]4(C)C(=O)OCC(=O)NCc3cn(-c4ccccc4)nn3)(CC1=O)C2` [Compound 5a, 2-oxo-2-(((1-phenyl-1H-1,2,3-triazol-4-yl)methyl)amino)ethyl(4R,4aS,6aR,9S,11aR,11bS)-4,9,11b-trimethyl-8-oxotetradecahydro-6a,9-methanocyclohepta[a]naphthalene-4-carboxylate], for which the melting point lay in the range of 83 to 84 °C. Also, in the data set on HCT-116 cells, the inhibition at 100 µM amounted to 81.9 ± 2.55% and the IC50 was determined as 14.6 ± 0.51 µM. In the data set with BEL-7402 cells, the inhibition at 100 µM came out at 90 ± 1.92% and 27.1 ± 0.87 µM corresponded to half-maximal inhibition (IC50). Also, in the data set with HepG2 cells, the inhibition at 100 µM was 87 ± 1.06% and 9.87 ± 0.13 µM corresponded to half-maximal inhibition (IC50). Also, in the data set with L02 cells, the IC50 was over 100 µM.
On to `COC(=O)C(Cc1ccccc1)NC(=O)C1(C)CCCC2(C)C3CCC4(C)CC3(CCC12)CC4=O` [Compound 3b, Methyl((4R,4aS,6aR,9S,11aR,11bS)-4,9,11b-trimethyl-8-oxotetradecahydro-6a,9-methanocyclohepta[a]naphthalene-4-carbonyl)-D-phenylalaninate], for which the melting point lay within 147 to 148 °C. Moreover, in the data set on HCT-116 cells, the inhibition at 100 µM came out at 70.8 ± 0.98% and the IC50 came to 22.8 ± 0.81 µM. In the data set on BEL-7402 cells, the inhibition at 100 µM worked out at 61.8 ± 0.96% and half-maximal inhibition (IC50) was put at 36.5 ± 0.67 µM. Moreover, in the data set with HepG2 cells, the inhibition at 100 µM came to 81.2 ± 2.66% and inhibition was half-maximal at 24.4 ± 1.75 µM (IC50). The IC50 in the data set on L02 cells is over 100 µM.
Turning to `CC(=O)O[C@H]1CC[C@@]2(C)C(CC[C@]3(C)C2CC=C2C4[C@@H](C)[C@H](C)CC[C@]4(C(=O)Nc4ccccc4)CC[C@]23C)C1(C)C` (stereo partly drawn) [Compound A], the concentration for half-maximal inhibition (IC50) in the data set with HeLa cells is 1.63 µM.
Turning to `CCN1CCN(C(=O)COC(=O)[C@]2(C)CCC[C@@]3(C)[C@@H]4CC[C@@]5(C)C[C@]4(CC[C@@H]32)CC5=O)CC1` [Compound 2b, 2-(4-ethylpiperazin-1-yl)-2-oxoethyl(4R,4aS,6aR,9S,11aR,11bS)-4,9,11b-trimethyl-8-oxotetradecahydro-6a,9-methanocyclohepta[a]naphthalene-4-carboxylate], the melting point was 115 to 117 °C. In the data set on HCT-116 cells, the inhibition at 100 µM worked out at 60.4 ± 1.69% and the IC50 was 30.7 ± 1.98 µM. In the data set with BEL-7402 cells, the inhibition at 100 µM was determined as 64.4 ± 1.66% and the IC50 was over 100 µM. Moreover, in the data set on HepG2 cells, the inhibition at 100 µM is under 10% and the IC50 is over 100 µM. Further, the IC50 with L02 cells is over 100 µM.
`C[C@@]12CC[C@@H]3[C@@](CC[C@H]4[C@@]3(C)CCC[C@@]4(C)C(=O)OCC(=O)N3CCN(Cc4ccccc4)CC3)(CC1=O)C2` [Compound 2d, 2-(4-benzylpiperazin-1-yl)-2-oxoethyl(4R,4aS,6aR,9S,11aR,11bS)-4,9,11b-trimethyl-8-oxotetradecahydro-6a,9-methanocyclohepta[a]naphthalene-4-carboxylate] yielded a melting point of 149 to 150 °C. Besides, in the data set on HCT-116 cells, the inhibition at 100 µM was 75.4 ± 1.06% and half-maximal inhibition (IC50) was put at 18.2 ± 1.26 µM. Further, in the data set with BEL-7402 cells, the inhibition at 100 µM was 70.9 ± 1.05% and half-maximal inhibition (IC50) required 53 ± 1.97 µM. Besides, in the data set on HepG2 cells, the inhibition at 100 µM is 70.6 ± 0.89% and it took 11.1 ± 0.55 µM to reach half-maximal inhibition (IC50). For the same compound, in the data set on L02 cells, the IC50 was over 100 µM.
For `CN(C)CCNC(=O)[C@]1(C)CCC[C@@]2(C)[C@@H]3CC[C@@]4(C)C[C@]3(CC[C@@H]21)CC4=O` [Compound 1b, (4R,4aS,6aR,9S,11aR,11bS)-N-(2-(dimethylamino)ethyl)-4,9,11b-trimethyl-8-oxotetradecahydro-6a,9-methanocyclohepta[a]naphthalene-4-carboxamide], the melting point was 102 to 103 °C. In addition, in the data set with HCT-116 cells, the inhibition at 100 µM came to 76.6 ± 1.78% and 24 ± 1.2 µM corresponded to half-maximal inhibition (IC50). Moreover, in the data set on BEL-7402 cells, the inhibition at 100 µM is 88.5 ± 2.02% and the 50% inhibitory concentration (IC50) was over 100 µM. In the data set on HepG2 cells, the inhibition at 100 µM came out at 57 ± 2.35% and the IC50 is over 100 µM. The IC50 in the data set on L02 cells was over 100 µM.
On to `C[C@@]12CC[C@@H]3[C@@](CC[C@H]4[C@@]3(C)CCC[C@@]4(C)C(=O)OCC(=O)Nc3ccc([N+](=O)[O-])cc3)(CC1=O)C2` [Compound 4h, 2-((4-nitrophenyl)amino)-2-oxoethyl(4R,4aS,6aR,9S,11aR,11bS)-4,9,11b-trimethyl-8-oxotetradecahydro-6a,9-methanocyclohepta[a]naphthalene-4-carboxylate], for which the melting point lay in the range of 189 to 190 °C. In the data set with HCT-116 cells, the inhibition at 100 µM was determined as 55.4 ± 2.55% and the half-maximal inhibitory concentration (IC50) is over 100 µM. In the data set on BEL-7402 cells, the inhibition at 100 µM was 71.4 ± 2.36% and the IC50 is 12.14 ± 0.12 µM. Moreover, in the data set on HepG2 cells, the inhibition at 100 µM was determined as 76.5 ± 1% and the IC50 stood at 14.1 ± 0.27 µM. In addition, in the data set with L02 cells, the concentration for half-maximal inhibition (IC50) is over 100 µM.
For `COC(=O)[C@]1(C)CCC[C@@]2(C)[C@@H]3CC[C@@]4(C)C[C@@]3(C=C4c3cn(CCCc4ccccc4)nn3)CC[C@@H]21` [Compound E], the half-inhibitory concentration (IC50) in the data set on HL-60 cells was 25.6 µM.
The compound `C[C@@]12CC[C@@H]3[C@@](CC[C@H]4[C@@]3(C)CCC[C@@]4(C)C(=O)OCC(=O)N3CCCCCC3)(CC1=O)C2` [Compound 2e, 2-(azepan-1-yl)-2-oxoethyl(4R,4aS,6aR,9S,11aR,11bS)-4,9,11b-trimethyl-8-oxotetradecahydro-6a,9-methanocyclohepta[a]naphthalene-4-carboxylate] had a melting point of 110 to 112 °C. For the same compound, in the data set with HCT-116 cells, the inhibition at 100 µM was determined as 85.6 ± 0.96% and the concentration for half-maximal inhibition (IC50) is over 100 µM. Moreover, in the data set on BEL-7402 cells, the inhibition at 100 µM worked out at 64.9 ± 1.01% and the IC50 stood at 13.2 ± 0.32 µM. Besides, in the data set on HepG2 cells, the inhibition at 100 µM turned out to be 50.4 ± 0.57% and the IC50 came out at 20.5 ± 0.46 µM. Besides, the IC50 in the data set on L02 cells is over 100 µM.
Compound `C[C@@]12CC[C@@H]3[C@@](CC[C@H]4[C@@]3(C)CCC[C@@]4(C)C(=O)OCC(=O)Nc3cccc(F)c3)(CC1=O)C2` [Compound 4f, 2-((3-fluorophenyl)amino)-2-oxoethyl(4R,4aS,6aR,9S,11aR,11bS)-4,9,11b-trimethyl-8-oxotetradecahydro-6a,9-methanocyclohepta[a]naphthalene-4-carboxylate] yielded a melting point of 144 to 145 °C. Also, in the data set on HCT-116 cells, the inhibition at 100 µM came out at 68.7 ± 2.67% and the IC50 is 17.2 ± 0.43 µM. In the data set with BEL-7402 cells, the inhibition at 100 µM came out at 54.6 ± 3.11% and the IC50 was over 100 µM. In the data set on HepG2 cells, the inhibition at 100 µM came to 49.12 ± 0.44% and the IC50 was over 100 µM. For the same compound, the IC50 with L02 cells is over 100 µM.
The compound `C[C@@]12CC[C@@H]3[C@@](CC[C@H]4[C@@]3(C)CCC[C@@]4(C)C(=O)OCC(=O)NCc3cn(-c4ccc(Cl)c(Cl)c4)nn3)(CC1=O)C2` [Compound 5e, 2-(((1-(3,4-dichlorophenyl)-1H-1,2,3-triazol-4-yl)methyl)amino)-2-oxoethyl(4R,4aS,6aR,9S,11aR,11bS)-4,9,11b-trimethyl-8-oxotetradecahydro-6a,9-methanocyclohepta[a]naphthalene-4-carboxylate] displayed a melting point of 96 to 97 °C. For the same compound, in the data set on HCT-116 cells, the inhibition at 100 µM came out at 71.14 ± 0.65% and the half-maximal inhibitory concentration (IC50) was 14.3 ± 0.15 µM. Besides, in the data set on BEL-7402 cells, the inhibition at 100 µM was found to be 68 ± 1.17% and the IC50 was over 100 µM. Besides, in the data set on HepG2 cells, the inhibition at 100 µM turned out to be 66.1 ± 0.97% and the midpoint of inhibition, the IC50, lay at 12.82 ± 0.09 µM. In addition, the IC50 with L02 cells was over 100 µM.
